In PubChem BioAssay (NCI):
“And” between values parts separate entries of the source, which are not always exact repeats. Equal values may be shown once.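 Dose response: 5 concentrations. Exposure: 48 h. Format: 96-well plates. Endpoint: linear interpolation; highest concentration if not reached. GI50 is the concentration that inhibits growth by half. The concentration for full growth arrest is given as TGI.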

Key:
Assay in all cases: NCI tumour cell line growth inhibition, 48 h
[1] = system: CAKI-1 renal
[2] = system: HCT-15 colon
[3] = system: M14 melanoma
[4] = system: OVCAR-4 ovarian
[5] = system: PC-3 prostate
[6] = system: SF-268 CNS
[7] = system: SK-MEL-5 melanoma
[8] = system: U251 CNS
[9] = system: UACC-257 melanoma
[10] = system: K-562 leukemia

Row | SMILES | TGI [1] | TGI [2] [µM] | TGI [3] [µM] | TGI [4] | TGI [5] [µM] | TGI [6] | TGI [7] | TGI [8] | TGI [9] | TGI [10] | GI50 [1] [µM] | GI50 [6] [µM] | GI50 [7] [µM] | GI50 [8] [µM] | GI50 [9] [µM]
1 | CN(CC(=O)O)Cc1c(O)c(Cl)cc(Cl)c1Cl | > 100 µM | > 100 | > 100 | > 100 µM | > 100 | > 100 µM | > 100 µM | > 100 µM | 97.5 µM |  |  |  |  |  | 
2 | OC[C@H]1NC[C@@H](O)[C@@H](O)[C@H]1O | > 100 µM | > 100 | > 100 | > 100 µM | > 100 |  | > 100 µM | > 100 µM | > 100 µM | > 100 µM |  |  |  |  | 
3 | CSc1nc(CO)c(CO)n1C | > 100 µM | > 100 |  | > 100 µM |  | > 100 µM | > 100 µM | > 100 µM | > 100 µM | > 100 µM |  |  |  |  | 
4 | CCCCN1C(=O)c2c(Br)sc(Br)c2C1=O | > 100 µM | > 100 | > 100 | 91.1 µM | > 100 | > 100 µM | > 100 µM | > 100 µM | > 100 µM | > 100 µM |  |  |  |  | 
5 | Cc1[nH]c(=O)[nH]c(=O)c1/C=C/C(=O)NC(CO)CS(=O)CS(C)=O (configuration not stated) | 13.3 µM | 408 |  | 14.9 µM |  | 35.2 µM | 76.9 µM | 39.6 µM | 151 µM | 135 µM |  |  |  |  | 
6 | COc1ccccc1CC(C)N (configuration not stated) | > 100 µM | > 100 | > 100 | > 100 µM |  | > 100 µM | > 100 µM | > 100 µM | > 100 µM | > 100 µM |  |  |  |  | 
7 | COc1ccc(-c2nc3c(nc2-c2ccc(OC)cc2)C(N)=NS(=O)(=O)N3)cc1 | > 100 µM | > 100 |  |  |  | > 100 µM | > 100 µM | > 100 µM | > 100 µM | > 100 µM |  |  |  |  | 
8 | CCOC(=O)Cn1c2ccc(Br)cc2c2nc3ccccc3nc21 | > 100 µM |  | > 100 |  | > 100 | > 100 µM | > 100 µM | > 100 µM | > 100 µM | > 100 µM |  |  |  |  | 
9 | Nc1[nH]c(=S)nc2nc3c(c(-c4ccccc4)c12)CCCC3 | > 100 µM | > 100 | > 100 | > 100 µM | > 100 | > 100 µM | > 100 µM | > 100 µM |  | > 100 µM |  |  |  |  | 
10 | CC1C(=O)CC(c2cccs2)N(N=O)C1c1cccs1 (configuration not stated) | > 100 µM | > 100 |  | > 100 µM |  | > 100 µM | > 100 µM | > 100 µM | > 100 µM | 27.6 µM |  |  |  |  | 
11 | COC(=O)C1=C(C)N2CCSC2(C)C(C(=O)OC)C1c1cccc(Cl)c1 (configuration not stated) | 70 µM |  | 89.3 | > 100 µM |  | 43.7 µM | 29 µM |  | 21.7 µM | > 100 µM |  |  |  |  | 
12 | NC(CCOCCP(=O)(O)CCC1C=CC=CC1)C(=O)O (configuration not stated) | > 100 µM | > 100 | > 100 | > 100 µM | > 100 | > 100 µM | > 100 µM | > 100 µM | > 100 µM | > 100 µM |  |  |  |  | 
13 | CCN(CC)CC[n+]1ccc2c(C)c3[nH]c4ccc(O)cc4c3c(C)c2c1 | 49.6 µM and 16.3 µM | 143 | 34.9 | 23.4 µM and 30.4 µM | 31.8 | 7.3 µM and 7.53 µM | 12.6 µM and 27.1 µM | 9.12 µM and 11.1 µM | 43.9 µM and 91.6 µM | 42.5 µM and 40.2 µM | 3.41 | 0.685 | 4.5 | 0.624 | 24.2
14 | CCc1n[nH]c(=O)n1/N=C(\C)c1ccc([N+](=O)[O-])cc1 | > 100 µM | > 100 | > 100 | > 100 µM | > 100 | > 100 µM | > 100 µM | > 100 µM | > 100 µM | > 100 µM |  |  |  |  | 
15 | CCOC(=O)CCC(C(=O)OCC)n1nc2ccc(Nc3c(C)[n+]([O-])c4cc(F)c(OCC)cc4[n+]3[O-])cc2n1 (configuration not stated) | > 100 µM | > 100 | > 100 | > 100 µM | > 100 | 37.6 µM | > 100 µM | 62.7 µM | > 100 µM | > 100 µM |  |  |  |  | 
16 | N#CC1=C2SCCN2C(=O)C(C#N)C12CCCCC2 (configuration not stated) | > 100 µM | > 100 | > 100 | > 100 µM | > 100 | > 100 µM | > 100 µM | > 100 µM | > 100 µM | > 100 µM |  |  |  |  | 
17 | COc1ccc(NC(C)=O)cc1N1C(=O)/C(=C\c2ccccc2)SC1c1cc(OC)c(OC)c(OC)c1 (configuration not stated) | > 100 µM | 58.8 | > 100 |  | > 100 | 43.9 µM | 37 µM | > 100 µM | > 100 µM | > 100 µM |  |  |  |  | 
18 | CN(C)CCNC(=O)c1cc(Cl)cc2cc3ccccc3nc12 |  | 11.4 |  | 8.04 µM |  | 4.53 µM | 2.6 µM | 8.4 µM | 3.66 µM |  |  |  |  |  | 
19 | C=C(C)[C@@H]1CCC2=C[C@H](C/C(C)=C\C3=CC(C)=C(O3)[C@H]1O)OC2=O | > 100 µM | > 100 | > 100 | > 100 µM | > 100 | > 100 µM | > 100 µM | > 100 µM | > 100 µM | > 100 µM |  |  |  |  | 
